Values quoted from earlier work as cited in patent US20240197589A1, “ORAL CARE COMPOSITIONS COMPRISING GERANYLGERANIOL AND METHODS OF USE THEREOF” (AMERICAN RIVER NUTRITION, LLC, priority 2022, published 2024).

Experiments:
[1] = in combination with amoxicillin, 200 mg two times per day for 5 days, following third molar removal
[2] = test system: Streptococcus mutans
[3] = test system: Porphyromonas gingivalis
[4] = animals treated with both bisphosphonates and GG
[5] = test system: Staphylococcus aureus; settings: S. aureus
[6] = test system: Mycobacterium tuberculosis; settings: M. tuberculosis, at 6.25 ug/ml

## Bromelain
[1]
  study subjects with reduced swelling and pain: up to 70%
[2]
  dilution effective against Streptococcus mutans: 2 mg/mL
[3]
  dilution exerting antibacterial effects against Porphyromonas gingivalis: 4.15 mg/mL

## CC(C)=CCC/C(C)=C/CC/C(C)=C/CC/C(C)=C/CO [GG, geranylgeraniol]
[4]
  improved gum and extracted socket healing: 45-67%
[5]
  concentration for optimum bactericidal effect: 0.15 to 1.25 µg/mL
[5]; 0.15-1.25 ug/ml, within two hours
  decrease of viable bacterial cell count: decreased viable bacterial cell count by a factor of two
[6]
  inhibition of the bacterium: 96%
